ChEMBL document CHEMBL3232765, “Anti-mycobacterial activity of 1,3-diaryltriazenes” (Eur J Med Chem, 2014)

The compounds below were run on Mycobacterium tuberculosis (assay: Antimycobacterial activity against Mycobacterium tuberculosis H37Rv after 6 days by luciferase reporter gene assay). Details: 144 h.
Assay type: functional, organism-based
With `FC(F)(F)c1ccc(Cl)c(N=NNc2cc(C(F)(F)F)ccc2Cl)c1` the IC50 was 97.5 µM, the IC90 was over 100 µM and the IC99 was over 100 µM.
For `FC(F)(F)c1cc(Cl)ccc1/N=N/Nc1ccc(Cl)cc1C(F)(F)F`, the IC50 was 93 µM, the IC90 was over 100 µM and the IC99 was over 100 µM.
`COc1ccc(/C=C/C(=O)N(/N=N/c2cc(C(F)(F)F)ccc2Cl)c2cc(C(F)(F)F)ccc2Cl)c(OC)c1` gave an IC50 of 72.3 µM, an IC90 of over 100 µM and an IC99 of over 100 µM.
In the case of `COc1ccc(/C=C/C(=O)N(/N=N/c2ccc(Cl)c(C(F)(F)F)c2)c2ccc(Cl)c(C(F)(F)F)c2)c(OC)c1`, the IC50 is reported as 52 µM, the IC90 is reported as 80.8 µM and the IC99 is reported as 84.4 µM.
For `COc1cc(/C=C/C(=O)N(/N=N/c2ccc(Cl)c(C(F)(F)F)c2)c2ccc(Cl)c(C(F)(F)F)c2)cc(OC)c1`, the IC50 was 71.3 µM, the IC90 was over 100 µM and the IC99 was over 100 µM.
`Fc1ccc(C(F)(F)F)cc1/N=N/Nc1cc(C(F)(F)F)ccc1F` gave an IC50 of 58.9 µM, an IC90 of over 100 µM and an IC99 of over 100 µM.
Work on `N#Cc1c(F)cccc1/N=N/Nc1cccc(F)c1C#N` yielded an IC50 of 62.3 µM, an IC90 of over 100 µM and an IC99 of over 100 µM.
In the case of `Fc1ccc(/N=N/Nc2ccc(F)cc2C(F)(F)F)c(C(F)(F)F)c1`, the IC50 is reported as 85.5 µM, the IC90 is reported as over 100 µM and the IC99 is reported as over 100 µM.
`N#Cc1cc(/N=N/Nc2ccc(F)c(C#N)c2)ccc1F` showed an IC50 of over 100 µM, an IC90 of over 100 µM and an IC99 of over 100 µM.
In the case of `Clc1ccc(/N=N/Nc2ccc(Cl)cc2Cl)c(Cl)c1`, the IC50 is reported as over 100 µM, the IC90 is reported as over 100 µM and the IC99 is reported as over 100 µM.
With `COc1ccc(/C=C/C(=O)N(/N=N/c2ccc(Cl)cc2C(F)(F)F)c2ccc(Cl)cc2C(F)(F)F)c(OC)c1` the IC50 was 83.1 µM, the IC90 was over 100 µM and the IC99 was over 100 µM.
For `NNC(=O)c1ccncc1` [ISONIAZID], the IC50 was 0.04 µM, the IC90 was 0.11 µM and the IC99 was 0.13 µM.
